# Results published in US6420367B1, “Pyrimidine derivatives exhibiting antitumor activity” (Shionogo & Co., Ltd., priority 1998, dated 2002).
# Columns and labels:
# [1] = system: human lung adenocarcinoma A549; assay: In vitro cell growth inhibition test, MTT assay; format: cell-based; details: MTT assay 4 days after compound addition
# Excerpt: (§1) Test Example 2 In Vitro Cell Growth Inhibition Test Cells and MTT Assay
# (§2) Human squamous lung cancer […], human squamous lung cancer Ma44, human lung adenocarcinoma A549, human colon cancer HT29 and human pancreas cancer PANC-1 were used.
# human colon cancer HT29 = assay: In vitro cell growth inhibition test, MTT assay; format: cell-based; details: MTT assay 4 days after compound addition
# Excerpt: as §1, §2
# [2] = system: human squamous lung cancer RERF-RC-AI; assay: In vitro cell growth inhibition test, MTT assay; format: cell-based; details: MTT assay 4 days after compound addition
# Excerpt: as §1, §2
# [3] = system: human pancreas cancer PANC-1; assay: In vitro cell growth inhibition test, MTT assay; format: cell-based; details: MTT assay 4 days after compound addition
# Excerpt: as §1, §2
# [4] = system: human squamous lung cancer Ma44; assay: In vitro cell growth inhibition test, MTT assay; format: cell-based; details: MTT assay 4 days after compound addition
# Excerpt: as §1, §2
# [5] = system: DT-R cells (pRRE3-luc-transfected v-ki-ras-transformed NIH3T3 cells); signal derived from Ras oncogene products; assay: Inhibitory effect against cellular signaling derived from Ras oncogene products: luciferase reporter, dissociation of DT-R from DT-C activity (MAC); format: cell-based, mouse; details: minimal tested concentration at which luciferase activities of DT-C cells and DT-R cells dissociated
# Excerpt: Test Example 1 Inhibitory Effect Against Cellular Signaling Derived From Ras Oncogene Products
# 1) Establishment of Cell Lines Used in Assay
# Based on the reporter plasmid (pGV-P (Toyo Ink, Japan)), in which luciferase gene was ligated to SV40-derived minimal promoter, we constructed a plasmid designated pRRE3-luc by inserting 3 copies of chemically synthesized oligonucleotides (Sequence: CAGGATATGACTCT, derived from mouse NVL-3 (M. A. Reddy et al.(1992)Mol. Endocrinol., 6, 1051)) into upstream of the promoter. v-ki-ras-transformed NIH3T3 cells (DT cells, provided by Dr. Makoto Noda (Kyoto Univ., School of medicine)) were transfected with this plasmid by liposome-mediated transfection and transfected cell lines stably incorporated and maintained each plasmid were obtained. We named pGV-P and pRRE3-transfected cell line as DT-C and DT-R, respectively and used in the assay described below.
# 2) Preparation of Samples
# i) All the cell lines were cultured in Dulbecco's Modified Essential Medium (DMEM: 10% Fetal Calf Serum(FCS: Hyclone, USA)) including […] kanamycin (Meiji Seika, Japan) in humidified incubator under condition of 5% CO2 at 37° C.
# ii) DT-C and DT-R cells were seeded at 2500 cells/well into flat-bottom 96 well multiplate (Sumitomo bakelite) and incubated for 24 hours.
# iii) Test compounds were prepared as 1 mg/ml DMSO solution.
# iv) The solution of test compounds were added to the culture. Tested compounds are used at the concentration from […] to 0.51 ng/ml with by 3-fold dilution.
# v) After 24 hours, the culture supernatant was completely aspirated and […] of cell-lysing solution (PGC-50 (Toyo Ink, Japan)) was added before cells were dried up. In order to the cells were lysed completely, multiwell plates were left at room temperature for 10 to 30 min. The plates were wrapped up and stored at −20° C. till the day of measurement.
# 3) Measurement of Samples
# i) Melt the samples by putting 96 well multiplate at 37° C. and add 90 μl/well 25 mM Tris (pH 7.5).
# ii) Transfer 50 μl of the sample (110 μl) to the 96 well microplate for measurement (Microlite 1 (Dynatech)).
# iii) Measure the samples by the luminometer, LUMINOUS CT9000D (Dia-Yatron, Japan). We used Pickagene luminescence kit PGL2000 or LT2.0 (Toyo Ink, Japan) as substrates for luminescence measurement (50 μl/well).
# 4) Judgment of the Results
# i) The luciferase activity of DT-C cells and DT-R cells were plotted in the graph where the relative activity and the compound concentration were expressed as Y-axis and X-axis, respectively. We judged by the degree of dissociation between the activities of DT-C cells and DT-R cells as an index.
# ii) Concretely, efficacy of the compound was expressed by two values described below.
# a) Among the points of concentration tested, the minimal concentration (Minimal Active Concentration: MAC), at which the activities of DT-C cells and DT-R cells dissociated, was shown as an index of efficacy of the compound.
Compound,"IC50, A549 [1] [µg/mL]","IC50, HT29 (human colon cancer HT29) [µg/mL]","IC50, RERF-LC-AI [2] [µg/mL]","IC50, PANC-1 [3] [µg/mL]","IC50, Ma44 [4] [µg/mL]",MAC (Minimal Active Concentration) [5] [µg/mL]
CCNC(=Nc1ncncc1CSc1nnc(-c2ccc([N+](=O)[O-])cc2)o1)NCC [Compound A-172],0.0075,0.0033,0.0015,0.0031,0.0038,0.0137
CCNC(=Nc1ncncc1CSc1nnc(-c2ccc(N)cc2)o1)NCC [Compound A-3],0.035,0.0066,0.026,0.015,0.09,0.0412
CCNC(=Nc1ncncc1CSc1nnc(-c2ccc(N)cc2)o1)NC [Compound A-176],0.012,0.006,0.0032,0.0056,0.018,0.123
CCCCNC(=Nc1nc(C)ncc1CSc1nnc(-c2ccc(N)cc2)o1)NCCCC [Compound A-169],0.041,0.027,0.021,0.025,0.05,0.0412
CCNC(=Nc1ncncc1CSc1nnc(-c2ccc(NC)cc2)o1)NCC [Compound A-66],0.036,0.067,0.05,0.17,1.8,
Cc1ncc(CSc2nnc(-c3ccc([N+](=O)[O-])cc3)o2)c(N=C(NCC(C)C)NCC(C)C)n1 [Compound A-129],0.43,0.3,0.17,0.21,0.33,

# Further lines, with some results ahead:
"IC50, A549 [1] [µg/mL]","IC50, HT29 (human colon cancer HT29) [µg/mL]","IC50, RERF-LC-AI [2] [µg/mL]","IC50, PANC-1 [3] [µg/mL]","IC50, Ma44 [4] [µg/mL]",Compound,MAC (Minimal Active Concentration) [5] [µg/mL]
0.031,0.006,0.008,0.014,0.014,CCNC(=Nc1nc(C)ncc1CSc1nnc(-c2ccc([N+](=O)[O-])cc2)o1)NCC [Compound A-82],<0.000508
0.18,0.039,0.05,0.081,0.077,CCNC(=Nc1nc(C)ncc1CSc1nnc(-c2ccc([N+](=O)[O-])cc2F)o1)NCC [Compound A-132],0.123
0.049,,,0.024,0.11,CCNC(=Nc1nc(C)ncc1CSc1nnc(-c2cc(F)c(F)cc2N)o1)NCC [Compound A-52],0.123
0.065,0.036,,0.052,0.055,CCNC(=Nc1nc(C)ncc1CSc1nnc(-c2ccccc2)o1)NCC [Compound A-107],0.370
3.2,0.18,0.083,2.4,5.2,CCNC(=Nc1nc(C)ncc1CSc1nnc(-c2c[nH]nc2N)o1)NCC [Compound D-7],
0.13,0.044,0.03,0.048,0.11,CCNC(=Nc1nc(C)ncc1CSc1nnc(-c2ccccc2Cl)o1)NCC [Compound A-77],
0.44,0.38,0.18,0.3,0.41,CCNC(=Nc1nc(C)ncc1CSc1nnc(-c2ccc(C(=O)c3ccccc3)cc2)o1)NCC [Compound A-84],
